Source: the supplement of paper PMC10307832

How the values were obtained:
Test in all cases: relative viability (nuclei count vs DMSO), 5 days (fraction); higher = more cells survive
[1] = compound: CC(C)C[C@H](NC(=O)[C@H](Cc1ccccc1)NC(=O)c1cnccn1)B(O)O [Bortezomib] + N=C(N)NC(=N)NCCc1ccccc1 [Phenformin] (partner 250 µM)
Outline: (§1)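 Relative viability divides the nuclei count in treated wells by that in vehicle wells. Lung cancer cell lines were seeded in 1536-well plates, dosed by pin tool the next day, and fixed and stained after 5 days in one step with final 0.05% Triton X-100, 1% formaldehyde and 1 ug/ml Hoechst. Dosing was a single drug or a fixed anchor-drug dose plus five library-drug doses (not always all listed) in √10 steps, and values are medians of duplicate plates imaged at 4×.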

[2] = compound: CC1=CC(=NN1)NC2=CC(=NC(=N2)/C=C/C3=CC=CC=C3)N4CCN(CC4)C + CC(C)C[C@H](NC(=O)[C@H](Cc1ccccc1)NC(=O)c1cnccn1)B(O)O [Bortezomib] (partner 0.002 µM)
Outline: as §1

[3] = compound: COC1=CC(c2cc3ccccc3[nH]2)=N/C1=C\c1[nH]c(C)cc1C [Obatoclax] + CC(=O)c1c(C)c2cnc(Nc3ccc(N4CCNCC4)cn3)nc2n(C2CCCC2)c1=O [Palbociclib] (partner 0.5 µM)
Outline: as §1

[4] = compound: COC1=CC(c2cc3ccccc3[nH]2)=N/C1=C\c1[nH]c(C)cc1C [Obatoclax] + C[C@@H](Oc1cc(-c2cnn(C3CCNCC3)c2)cnc1N)c1c(Cl)ccc(F)c1Cl [Crizotinib] (partner 1 µM)
Outline: as §1

Row | Cell Line | relative viability ([1]; first compound 0.0002 µM) | relative viability ([1]; first compound 0.000632 µM) | relative viability ([1]; first compound 0.002 µM) | relative viability ([1]; first compound 0.006325 µM) | relative viability ([1]; first compound 0.02 µM) | relative viability ([2]; first compound 0.08 µM) | relative viability ([2]; first compound 0.253 µM) | relative viability ([2]; first compound 0.8 µM) | relative viability ([2]; first compound 2.53 µM) | relative viability ([2]; first compound 8 µM) | relative viability ([3]; first compound 0.01 µM) | relative viability ([3]; first compound 0.03162 µM) | relative viability ([3]; first compound 0.1 µM) | relative viability ([3]; first compound 0.3162 µM) | relative viability ([3]; first compound 1 µM) | relative viability ([4]; first compound 0.01 µM) | relative viability ([4]; first compound 0.03162 µM) | relative viability ([4]; first compound 0.1 µM) | relative viability ([4]; first compound 0.3162 µM) | relative viability ([4]; first compound 1 µM)
1 | NCI-H2023 | 0.494 | 0.411 | 0.389 | 0.0877 | 0.0739 | 1.01 | 1.12 | 0.91 | 0.0954 | 0.0652 | 0.414 | 0.361 | 0.358 | 0.213 | 0.218 | 0.764 | 0.638 | 0.6 | 0.601 | 0.568
2 | EBC-1 | – | – | – | – | – | 0.523 | 0.557 | 0.427 | 0.264 | 0.158 | – | – | – | – | – | 0.176 | 0.198 | 0.197 | 0.19 | 0.168
3 | NCI-H1666 | 0.533 | 0.544 | 0.559 | 0.365 | 0.307 | 0.892 | 0.925 | 0.872 | 0.55 | 0.215 | 0.593 | 0.692 | 0.659 | 0.638 | 0.592 | 1.08 | 1.04 | 0.867 | 0.284 | 0.265
4 | NCI-H1975 | 0.405 | 0.35 | 0.115 | 0.0978 | 0.106 | 0.403 | 0.408 | 0.31 | 0.159 | 0.109 | 0.557 | 0.55 | 0.285 | 0.542 | 0.177 | 0.969 | 0.897 | 0.962 | 0.79 | 0.518
5 | NCI-H1793 | 0.366 | 0.242 | 0.368 | 0.344 | 0.169 | – | – | – | – | – | 0.286 | 0.284 | 0.323 | 0.33 | 0.384 | – | – | – | – | –
6 | NCI-H1355 | 0.446 | 0.414 | 0.493 | 0.381 | 0.176 | 1.16 | 1.17 | 1.16 | 0.885 | 0.168 | 0.398 | 0.391 | 0.371 | 0.387 | 0.369 | 1.13 | 0.93 | 1.04 | 1.03 | 0.915
7 | SW 900 | 0.534 | 0.548 | 0.13 | 0.123 | 0.0977 | – | – | – | – | – | 0.619 | 0.543 | 0.605 | 0.475 | 0.363 | – | – | – | – | –
8 | A549 | 0.154 | 0.231 | 0.18 | 0.0502 | 0.0365 | – | – | – | – | – | – | – | – | – | – | 0.75 | 0.799 | 0.752 | 0.664 | 0.0778
9 | NCI-H2170 | 0.43 | 0.419 | 0.462 | 0.326 | 0.208 | – | – | – | – | – | 0.372 | 0.4 | 0.393 | 0.368 | 0.43 | 1.13 | 1.13 | 1.11 | 1.2 | 1.09
10 | EKVX | 0.238 | 0.237 | 0.238 | 0.239 | 0.139 | 0.987 | 1.33 | 1.2 | 0.824 | 0.141 | 0.438 | – | 0.393 | 0.388 | 0.386 | 0.867 | 0.979 | 0.979 | 0.914 | 0.643
11 | RERF-LC-KJ | 0.377 | 0.42 | 0.415 | 0.337 | 0.272 | 1.09 | 1.16 | 1.12 | 0.748 | 0.381 | 0.909 | 1.06 | 1.09 | 0.957 | 0.892 | 0.739 | 0.821 | 0.804 | 0.794 | 0.749
12 | NCI-H1755 | 0.683 | 0.596 | 0.592 | 0.23 | 0.229 | 0.913 | 1.01 | 0.956 | 0.63 | 0.195 | 0.427 | 0.447 | 0.458 | 0.497 | 0.426 | 0.846 | 0.833 | 0.813 | 0.925 | 0.867
13 | NCI-H661 | 0.286 | 0.292 | 0.302 | 0.239 | 0.204 | 0.741 | 0.906 | 0.839 | 0.669 | 0.203 | 0.393 | 0.397 | 0.465 | 0.413 | 0.34 | 0.851 | – | – | – | 1.03
14 | LOU-NH91 | 0.774 | 0.645 | 0.661 | 0.282 | 0.261 | 0.403 | 0.472 | 0.537 | 0.474 | 0.358 | 0.497 | 0.523 | 0.429 | 0.422 | 0.464 | 0.768 | 0.628 | 0.703 | 0.874 | 0.759
15 | LXF-289 | 0.556 | 0.507 | 0.483 | 0.076 | 0.0724 | 0.992 | 0.98 | 0.917 | 0.656 | 0.115 | 0.588 | 0.609 | 0.588 | 0.629 | 0.613 | 0.796 | 0.8 | 0.83 | 0.822 | 0.679
16 | HCC-44 | 0.195 | 0.194 | 0.204 | 0.162 | 0.111 | 0.805 | 0.968 | 0.854 | 0.735 | 0.25 | 0.922 | 0.916 | 0.967 | 0.993 | 0.94 | 0.786 | 0.684 | 0.8 | 0.721 | 0.228
17 | HARA | 0.374 | 0.447 | 0.512 | 0.222 | 0.0528 | 0.971 | 1.31 | 1.09 | 0.352 | 0.109 | 0.314 | 0.224 | 0.285 | 0.242 | 0.216 | 1.01 | 1.03 | 1.1 | 1.05 | 0.382
18 | 201T | 0.456 | 0.402 | 0.483 | 0.44 | 0.24 | 1.11 | 1.17 | 1.06 | 1.02 | 1.01 | 0.382 | 0.363 | 0.348 | 0.348 | 0.357 | 1.01 | 1.03 | 1.04 | 0.996 | 1.06
